Experimental findings from ChEMBL document CHEMBL1201862, “PubChem BioAssay data set” (2004) are described below.

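Exposure lasted 48 hours, with cells grown in 96-well plates and compounds tested at five concentrations. GI50 marks 50% less growth.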 The source made the active and inactive calls. Rule as the data show it: active = GI50 up to about 1.1 µM and inactive = higher. Some results are limits rather than exact numbers.

Among the test systems are BT-549; SW-620; OVCAR-3; RXF 393; RPMI-8226; SK-MEL-28; HCC 2998; A498; NCI-H226; Malme-3M; HCT-116; 786-0; OVCAR-8; SK-OV-3; M14; ACHN; SK-MEL-5; SF-295; HOP-62; KM12.
Assay in all cases: inhibition of tumour cell growth, NCI panel, 48 h

As to `COc1cc2oc3cc(=O)cc4oc(-c5ccccc5)cc(c2c2c1CCC(c1ccccc1)O2)c43` (stereo not given), the GI50 with BT-549 is 80.5 µM (inactive); in the assay on SW-620 it was 67.1 µM (inactive); in the assay on OVCAR-3 it was 26 µM (inactive); with RXF 393 it was 54.7 µM (inactive); in the assay with RPMI-8226 it was 3.34 µM (inactive); in the assay with SK-MEL-28 it was 40.7 µM (inactive). In addition, the GI50 with HCC 2998 was 34.2 µM (inactive); in the assay with A498 it was 50.4 µM (inactive); with NCI-H226, > 100 µM (inactive); in the assay with Malme-3M it was 67.3 µM (inactive); with HCT-116, 29.2 µM (inactive); in the assay with 786-0, 48.2 µM (inactive). Besides, the GI50 is 50 µM (inactive) with OVCAR-8; 35 µM (inactive) in the assay on SK-OV-3; 17.4 µM (inactive) with M14; 19.3 µM (inactive) with ACHN; 20.4 µM (inactive) in the assay with SK-MEL-5; 19.1 µM (inactive) in the assay with SF-295. In addition, the values for the GI50 in the assay on HOP-62 and with KM12 were 41 µM (inactive) and 17 µM (inactive), respectively.

For the molecule `O=[N+]([O-])c1cc2c([N+](=O)[O-])cccc2o1`, the GI50 in the assay on BT-549 was 15.7 µM (inactive); with SW-620, 2.86 µM (inactive); in the assay on OVCAR-3, 5.01 µM (inactive); in the assay on RXF 393 it was 5.51 µM (inactive); in the assay on RPMI-8226, 2.85 µM (inactive); in the assay with SK-MEL-28, 3.15 µM (inactive). Besides, the GI50 is 17.6 µM (inactive) in the assay with HCC 2998; 22.4 µM (inactive) in the assay with A498; 12.6 µM (inactive) in the assay on NCI-H226; 13.6 µM (inactive) in the assay with Malme-3M; 2.72 µM (inactive) in the assay with HCT-116; 2.17 µM (inactive) in the assay with 786-0. The GI50 is 17 µM (inactive) with OVCAR-8; 16.8 µM (inactive) in the assay with SK-OV-3; 10.2 µM (inactive) with M14; 3.34 µM (inactive) in the assay with ACHN; 16.7 µM (inactive) in the assay with SK-MEL-5; 22.9 µM (inactive) with SF-295. Besides, the results for the GI50 with HOP-62 and in the assay with KM12 were 18.5 µM (inactive) and 15.2 µM (inactive), respectively.

`c1ccc(/N=C2\c3ccsc3/C(=N/c3ccccc3)c3ccsc32)cc1`: the GI50 in the assay with BT-549 is 2.07 µM (inactive); in the assay on SW-620, 1.89 µM (inactive); with OVCAR-3, 1.92 µM (inactive); in the assay on RXF 393, 1.77 µM (inactive); with RPMI-8226 it was 1.94 µM (inactive); with SK-MEL-28 it was 2.01 µM (inactive). Besides, the GI50 with HCC 2998 is 3.94 µM (inactive); with A498, 8.11 µM (inactive); in the assay on NCI-H226, 5.57 µM (inactive); in the assay with Malme-3M, 0.344 µM (active); in the assay with HCT-116, 1.93 µM (inactive); with 786-0, 2.75 µM (inactive). In addition, the GI50 in the assay with OVCAR-8 is 2.11 µM (inactive); with SK-OV-3 it was 6.59 µM (inactive); in the assay with M14, 1.34 µM (inactive); with ACHN, 1.71 µM (inactive); in the assay on SK-MEL-5 it was 1.09 µM (active); in the assay on SF-295, 1.7 µM (inactive). Also, the GI50 was 1.63 µM (inactive) in the assay with HOP-62 and 2.36 µM (inactive) in the assay with KM12.
